Assay in all cases: DiscoverX KinomeScreen kinase selectivity competition binding assay
In experiment [1] the target is T1, panel of ninety-seven kinases (Homo sapiens, UniProt P50613).
T1 construct: purchased DiscoverX; host or cells: T7 phage in E. coli (BL21-derived) for most kinases; HEK-293 for the rest
Particulars: CDK7; read-out: % Ctrl @ 3 μM. How it is done:
(§1) Atropisomer A-2 has been tested for off-target activity against a panel of ninety-seven kinases distributed across the kinome at a concentration of 3 μM using the DiscoverX KinomeScreen assay. The DiscoverX KinomeScreen assay is a site-directed competition binding assay which measures the binding affinity of a compound to a kinase, by use of a solid supported control compound which can bind or capture the kinases in solution. In the absence of a kinase-inhibitor test compound, all of the kinase will bind to the solid support. If a kinase-inhibitor test compound is added to the assay mix, the amount of kinase binding to the solid support will be reduced, the extent of reduction being dependent on the potency of the test compound as a kinase inhibitor. […] For most assays, kinase-tagged T7 phage strains were grown in parallel in 24-well blocks in an E. coli host derived from the BL21 strain. E. coli were grown to log-phase and infected with T7 phage from a frozen stock (multiplicity of infection=0.4) and incubated with shaking at 32° C. until lysis (90-150 minutes). The lysates were centrifuged (6,000×g) and filtered (0.2 μm) to remove cell debris. The remaining kinases were produced in HEK-293 cells and subsequently tagged with DNA for qPCR detection. Streptavidin-coated magnetic beads were treated with biotinylated small molecule ligands for 30 minutes at room temperature to generate affinity resins for kinase assays. The liganded beads were blocked with excess biotin and washed with blocking buffer (SeaBlock (Pierce), 1% BSA, 0.05% Tween 20, 1 mM DTT) to remove unbound ligand and to reduce non-specific phage binding. […] Test compounds were prepared as 40× stocks in 100% DMSO and directly diluted into the assay. All reactions were performed in polypropylene 384-well plates in a final volume of 0.02 ml. […] The beads were then re-suspended in elution buffer (1×PBS, 0.05% Tween 20, 0.5 μM non-biotinylated affinity ligand) and incubated at room temperature with shaking for 30 minutes. The kinase concentration in the eluates was measured by qPCR. Compounds that bind the kinase active site and directly (sterically) or indirectly (allosterically) prevent kinase binding to the immobilized ligand, will reduce the amount of kinase captured on the solid support. […] The strength of binding of the test molecule to the kinase can be expressed as the percent control (% Ctrl) The compound(s) were screened at 3000 nM concentration, and results for primary screen binding interactions are reported as ‘% Ctrl’, where lower numbers indicate stronger hits in the matrix on the following page(s). [formula] • negative control=DMSO (100% Ctrl) • positive control=control compound (0% Ctrl)

The target of experiment [2] is T2, panel of ninety-seven kinases (Homo sapiens, UniProt Q9BUB5).
T2 construct: purchased DiscoverX; host or cells: T7 phage in E. coli (BL21-derived) for most kinases; HEK-293 for the rest
Particulars: MKNK1; read-out: % Ctrl @ 3 μM. Here is the method:
as §1

In experiment [3] the target is T3, panel of ninety-seven kinases (Homo sapiens, UniProt Q96GD4).
T3 construct: purchased DiscoverX; host or cells: T7 phage in E. coli (BL21-derived) for most kinases; HEK-293 for the rest
The following applies: AURKB; read-out: % Ctrl @ 3 μM. Here is the method: as §1

For experiment [4], the target named is T4, panel of ninety-seven kinases (Homo sapiens, UniProt P09619).
T4 construct: purchased DiscoverX; host or cells: T7 phage in E. coli (BL21-derived) for most kinases; HEK-293 for the rest
Particulars: PDGFRB; read-out: % Ctrl @ 3 μM. Here is the method:
as §1

Experiment [5] concerns the target T5, panel of ninety-seven kinases (Homo sapiens, UniProt Q9BVS4).
T5 construct: purchased DiscoverX; host or cells: T7 phage in E. coli (BL21-derived) for most kinases; HEK-293 for the rest
The following applies: RIOK2; read-out: % Ctrl @ 3 μM. How it is done:
as §1

In experiment [6] the target is T6, panel of ninety-seven kinases (Homo sapiens, UniProt P48736).
T6 construct: purchased DiscoverX; host or cells: T7 phage in E. coli (BL21-derived) for most kinases; HEK-293 for the rest
The following applies: PIK3CG; read-out: % Ctrl @ 3 μM. Here is the method:
as §1

The target of experiment [7] is T7, panel of ninety-seven kinases (Homo sapiens, UniProt Q8IYT8).
T7 construct: purchased DiscoverX; host or cells: T7 phage in E. coli (BL21-derived) for most kinases; HEK-293 for the rest
The following applies: ULK2; read-out: % Ctrl @ 3 μM. Here is the method: as §1

Experiment [8] deals with T8, panel of ninety-seven kinases (Homo sapiens, UniProt Q86V86).
T8 construct: purchased DiscoverX; host or cells: T7 phage in E. coli (BL21-derived) for most kinases; HEK-293 for the rest
Particulars: PIM3; read-out: % Ctrl @ 3 μM. How it is done:
as §1

Experiment [9] concerns the target T9, panel of ninety-seven kinases (Homo sapiens, UniProt O00750).
T9 construct: purchased DiscoverX; host or cells: T7 phage in E. coli (BL21-derived) for most kinases; HEK-293 for the rest
The following applies: PIK3C2B; read-out: % Ctrl @ 3 μM. Here is the method: as §1

The target in experiment [10] is T10, panel of ninety-seven kinases (Homo sapiens, UniProt Q15831).
T10 construct: purchased DiscoverX; host or cells: T7 phage in E. coli (BL21-derived) for most kinases; HEK-293 for the rest
Particulars: STK11; read-out: % Ctrl @ 3 μM. Here is the method:
as §1

The target of experiment [11] is T11, panel of ninety-seven kinases (Homo sapiens, UniProt P49137).
T11 construct: purchased DiscoverX; host or cells: T7 phage in E. coli (BL21-derived) for most kinases; HEK-293 for the rest
Particulars: MAPKAPK2; read-out: % Ctrl @ 3 μM. Here is the method: as §1

For experiment [12], the target named is T12, panel of ninety-seven kinases (Homo sapiens, UniProt P80192).
T12 construct: purchased DiscoverX; host or cells: T7 phage in E. coli (BL21-derived) for most kinases; HEK-293 for the rest
The following applies: MAP3K9; read-out: % Ctrl @ 3 μM. How it is done:
as §1

Experiment [13] deals with T13, panel of ninety-seven kinases (Homo sapiens, UniProt P36507).
T13 construct: purchased DiscoverX; host or cells: T7 phage in E. coli (BL21-derived) for most kinases; HEK-293 for the rest
The following applies: MAP2K2; read-out: % Ctrl @ 3 μM. Here is the method: as §1

Experiment [14] addresses T14, panel of ninety-seven kinases (Homo sapiens, UniProt P53779).
T14 construct: purchased DiscoverX; host or cells: T7 phage in E. coli (BL21-derived) for most kinases; HEK-293 for the rest
Particulars: MAPK10; read-out: % Ctrl @ 3 μM. Here is the method: as §1

In experiment [15] the target is T15, panel of ninety-seven kinases (Homo sapiens, UniProt Q9UPE1).
T15 construct: purchased DiscoverX; host or cells: T7 phage in E. coli (BL21-derived) for most kinases; HEK-293 for the rest
Particulars: SRPK3; read-out: % Ctrl @ 3 μM. Here is the method:
as §1

In experiment [16] the target is T16, panel of ninety-seven kinases (Homo sapiens, UniProt O14920).
T16 construct: purchased DiscoverX; host or cells: T7 phage in E. coli (BL21-derived) for most kinases; HEK-293 for the rest
Particulars: IKBKB; read-out: % Ctrl @ 3 μM. How it is done: as §1

In experiment [17] the target is T17, panel of ninety-seven kinases (Homo sapiens, UniProt P27448).
T17 construct: purchased DiscoverX; host or cells: T7 phage in E. coli (BL21-derived) for most kinases; HEK-293 for the rest
The following applies: MARK3; read-out: % Ctrl @ 3 μM. How it is done: as §1

Experiment [18] has as its target T18, panel of ninety-seven kinases (Homo sapiens, UniProt P48730).
T18 construct: purchased DiscoverX; host or cells: T7 phage in E. coli (BL21-derived) for most kinases; HEK-293 for the rest
The following applies: CSNK1D; read-out: % Ctrl @ 3 μM. Here is the method:
as §1

The target of experiment [19] is T19, panel of ninety-seven kinases (Homo sapiens, UniProt O14757).
T19 construct: purchased DiscoverX; host or cells: T7 phage in E. coli (BL21-derived) for most kinases; HEK-293 for the rest
The following applies: CHEK1; read-out: % Ctrl @ 3 μM. How it is done: as §1

Experiment [20] deals with T20, panel of ninety-seven kinases (Homo sapiens, UniProt Q13873).
T20 construct: purchased DiscoverX; host or cells: T7 phage in E. coli (BL21-derived) for most kinases; HEK-293 for the rest
The following applies: BMPR2; read-out: % Ctrl @ 3 μM. How it is done:
as §1

The target of experiment [21] is T21, panel of ninety-seven kinases (Homo sapiens, UniProt P08581).
T21 construct: purchased DiscoverX; host or cells: T7 phage in E. coli (BL21-derived) for most kinases; HEK-293 for the rest
Particulars: MET; read-out: % Ctrl @ 3 μM. How it is done:
as §1

Each structure is given as a SMILES string.

Results on one molecule are retold here after patent publication US20220348565A1, “PHARMACEUTICAL COMPOUNDS” (SENTINEL ONCOLOGY LIMITED, priority 2019, published 2022).

T14 sequence (P53779 whole entry): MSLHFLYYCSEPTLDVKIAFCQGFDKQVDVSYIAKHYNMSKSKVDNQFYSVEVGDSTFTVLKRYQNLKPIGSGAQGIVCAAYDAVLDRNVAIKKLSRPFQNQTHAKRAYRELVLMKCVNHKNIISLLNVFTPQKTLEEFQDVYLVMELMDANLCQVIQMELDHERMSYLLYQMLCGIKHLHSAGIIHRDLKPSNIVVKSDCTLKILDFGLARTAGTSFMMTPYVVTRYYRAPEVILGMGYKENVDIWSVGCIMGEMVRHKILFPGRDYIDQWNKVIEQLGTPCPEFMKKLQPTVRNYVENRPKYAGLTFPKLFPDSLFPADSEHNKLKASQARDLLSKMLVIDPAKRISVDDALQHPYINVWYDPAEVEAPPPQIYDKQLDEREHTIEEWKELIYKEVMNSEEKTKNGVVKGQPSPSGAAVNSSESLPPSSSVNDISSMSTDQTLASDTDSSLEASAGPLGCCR
T16 sequence (O14920 whole entry): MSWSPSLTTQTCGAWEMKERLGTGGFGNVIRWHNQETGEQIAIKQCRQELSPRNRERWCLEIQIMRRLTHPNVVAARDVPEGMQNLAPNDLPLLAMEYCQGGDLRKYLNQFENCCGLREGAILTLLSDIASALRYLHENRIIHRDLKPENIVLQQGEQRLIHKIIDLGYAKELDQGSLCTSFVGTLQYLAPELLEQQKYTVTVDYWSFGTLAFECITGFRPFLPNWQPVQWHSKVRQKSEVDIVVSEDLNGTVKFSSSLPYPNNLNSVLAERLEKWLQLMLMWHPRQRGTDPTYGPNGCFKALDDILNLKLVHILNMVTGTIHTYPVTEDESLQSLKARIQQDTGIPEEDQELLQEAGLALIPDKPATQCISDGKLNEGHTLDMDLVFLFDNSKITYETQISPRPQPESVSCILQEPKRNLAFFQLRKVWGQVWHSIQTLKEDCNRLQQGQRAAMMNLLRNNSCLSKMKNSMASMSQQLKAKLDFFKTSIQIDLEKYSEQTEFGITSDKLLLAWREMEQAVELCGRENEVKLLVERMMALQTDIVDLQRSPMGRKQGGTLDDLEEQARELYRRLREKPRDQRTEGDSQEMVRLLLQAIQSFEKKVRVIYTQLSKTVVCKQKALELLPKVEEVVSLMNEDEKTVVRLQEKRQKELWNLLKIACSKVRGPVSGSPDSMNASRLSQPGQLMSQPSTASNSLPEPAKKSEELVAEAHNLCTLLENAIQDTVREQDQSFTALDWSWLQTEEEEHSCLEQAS
T6 sequence (P48736 whole entry): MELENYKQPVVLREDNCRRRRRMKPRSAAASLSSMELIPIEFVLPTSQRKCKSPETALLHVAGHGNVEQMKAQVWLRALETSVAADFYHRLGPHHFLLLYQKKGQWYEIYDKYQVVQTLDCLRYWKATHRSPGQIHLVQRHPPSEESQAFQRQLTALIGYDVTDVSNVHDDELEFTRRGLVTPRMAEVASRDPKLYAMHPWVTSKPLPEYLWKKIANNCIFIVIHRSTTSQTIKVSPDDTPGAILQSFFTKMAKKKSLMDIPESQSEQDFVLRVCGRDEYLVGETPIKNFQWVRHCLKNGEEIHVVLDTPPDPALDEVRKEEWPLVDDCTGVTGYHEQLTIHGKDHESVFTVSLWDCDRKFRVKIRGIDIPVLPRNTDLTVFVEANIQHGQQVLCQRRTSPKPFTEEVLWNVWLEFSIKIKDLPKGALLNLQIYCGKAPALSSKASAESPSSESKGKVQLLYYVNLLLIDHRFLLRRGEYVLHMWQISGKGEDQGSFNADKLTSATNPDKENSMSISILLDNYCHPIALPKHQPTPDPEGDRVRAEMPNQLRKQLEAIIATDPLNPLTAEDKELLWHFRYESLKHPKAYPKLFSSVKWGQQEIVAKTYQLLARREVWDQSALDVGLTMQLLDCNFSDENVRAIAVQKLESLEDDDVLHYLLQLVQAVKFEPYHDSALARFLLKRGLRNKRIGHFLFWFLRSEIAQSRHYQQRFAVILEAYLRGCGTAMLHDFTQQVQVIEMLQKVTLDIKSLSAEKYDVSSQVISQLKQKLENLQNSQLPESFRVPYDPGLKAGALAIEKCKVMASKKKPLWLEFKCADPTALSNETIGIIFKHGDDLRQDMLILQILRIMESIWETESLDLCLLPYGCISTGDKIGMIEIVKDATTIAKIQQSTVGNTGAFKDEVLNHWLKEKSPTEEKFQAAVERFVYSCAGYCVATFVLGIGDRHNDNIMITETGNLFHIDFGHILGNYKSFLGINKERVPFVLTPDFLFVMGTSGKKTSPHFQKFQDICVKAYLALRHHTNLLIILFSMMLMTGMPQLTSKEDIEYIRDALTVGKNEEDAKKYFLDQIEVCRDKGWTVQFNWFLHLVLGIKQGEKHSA
T15 sequence (Q9UPE1 whole entry): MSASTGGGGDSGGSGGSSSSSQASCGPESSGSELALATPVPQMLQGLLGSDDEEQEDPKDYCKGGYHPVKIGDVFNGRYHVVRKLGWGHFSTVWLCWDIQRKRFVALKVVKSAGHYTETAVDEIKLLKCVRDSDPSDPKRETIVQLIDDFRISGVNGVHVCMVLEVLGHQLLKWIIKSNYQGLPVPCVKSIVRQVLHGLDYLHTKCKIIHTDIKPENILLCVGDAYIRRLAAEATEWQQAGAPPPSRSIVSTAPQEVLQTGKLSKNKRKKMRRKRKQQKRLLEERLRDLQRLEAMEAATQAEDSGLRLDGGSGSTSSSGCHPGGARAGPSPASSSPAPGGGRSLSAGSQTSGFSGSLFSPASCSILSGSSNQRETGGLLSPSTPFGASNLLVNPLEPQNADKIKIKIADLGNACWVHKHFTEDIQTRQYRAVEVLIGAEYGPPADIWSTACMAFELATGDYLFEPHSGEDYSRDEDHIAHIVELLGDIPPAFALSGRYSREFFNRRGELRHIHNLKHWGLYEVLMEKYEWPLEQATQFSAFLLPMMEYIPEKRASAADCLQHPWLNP
T12 sequence (P80192 whole entry): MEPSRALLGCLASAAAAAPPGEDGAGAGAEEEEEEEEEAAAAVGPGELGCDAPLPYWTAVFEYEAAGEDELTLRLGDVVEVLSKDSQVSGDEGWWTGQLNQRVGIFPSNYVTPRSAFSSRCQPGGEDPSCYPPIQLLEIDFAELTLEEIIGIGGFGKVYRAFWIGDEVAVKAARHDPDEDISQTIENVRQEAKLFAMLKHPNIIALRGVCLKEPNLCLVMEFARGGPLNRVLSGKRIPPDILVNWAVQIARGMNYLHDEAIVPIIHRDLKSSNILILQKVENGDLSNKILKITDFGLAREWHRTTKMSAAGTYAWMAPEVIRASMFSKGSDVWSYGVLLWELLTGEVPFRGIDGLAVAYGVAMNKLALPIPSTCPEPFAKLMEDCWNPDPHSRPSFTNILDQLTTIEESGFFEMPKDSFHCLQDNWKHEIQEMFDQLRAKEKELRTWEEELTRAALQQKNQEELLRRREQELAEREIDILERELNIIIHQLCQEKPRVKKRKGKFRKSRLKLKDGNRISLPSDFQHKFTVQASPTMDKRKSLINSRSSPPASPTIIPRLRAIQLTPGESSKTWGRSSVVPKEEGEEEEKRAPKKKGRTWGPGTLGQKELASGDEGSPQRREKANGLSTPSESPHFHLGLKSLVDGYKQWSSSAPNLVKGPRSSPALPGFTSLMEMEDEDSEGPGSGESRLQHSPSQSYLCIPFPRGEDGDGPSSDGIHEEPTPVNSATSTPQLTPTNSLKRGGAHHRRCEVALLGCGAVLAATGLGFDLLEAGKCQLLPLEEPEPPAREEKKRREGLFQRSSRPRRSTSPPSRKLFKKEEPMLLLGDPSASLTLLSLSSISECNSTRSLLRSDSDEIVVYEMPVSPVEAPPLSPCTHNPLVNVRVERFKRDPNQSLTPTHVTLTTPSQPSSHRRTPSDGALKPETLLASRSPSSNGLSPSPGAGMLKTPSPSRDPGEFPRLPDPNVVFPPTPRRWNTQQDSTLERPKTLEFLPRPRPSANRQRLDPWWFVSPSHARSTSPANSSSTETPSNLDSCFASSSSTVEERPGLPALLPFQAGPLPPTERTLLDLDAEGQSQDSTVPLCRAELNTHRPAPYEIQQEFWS
T13 sequence (P36507 whole entry): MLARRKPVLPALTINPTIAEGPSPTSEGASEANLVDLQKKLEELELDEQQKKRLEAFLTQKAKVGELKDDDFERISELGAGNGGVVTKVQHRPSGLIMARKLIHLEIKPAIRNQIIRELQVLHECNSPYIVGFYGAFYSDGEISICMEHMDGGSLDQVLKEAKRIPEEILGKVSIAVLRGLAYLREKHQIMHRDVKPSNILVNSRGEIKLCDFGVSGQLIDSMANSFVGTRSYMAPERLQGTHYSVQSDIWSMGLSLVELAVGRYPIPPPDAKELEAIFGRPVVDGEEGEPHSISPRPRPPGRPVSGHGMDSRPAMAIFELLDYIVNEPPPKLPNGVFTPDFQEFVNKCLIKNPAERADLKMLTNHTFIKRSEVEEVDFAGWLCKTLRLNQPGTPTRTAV

Regarding `CN(C)CCNC(=O)c1ccc(-c2ccc(-c3ccc(Cl)cc3)n2-c2ccccc2C(F)(F)F)cc1` (single isomer, unassigned) [Atropisomer A-2, 4-[5-(4-chlorophenyl)-1-[2-(trifluoromethyl)phenyl]pyrrol-2-yl]-N-[2-(dimethylamino)ethyl]benzamide], the percent of control kinase binding to immobilized ligand at 3 µM came to 100% in experiment [1]; 92% in experiment [2]; 84% in experiment [3]; 100% in [4]; 100% in [5]; 100% in experiment [6]. For the same molecule, the percent of control kinase binding to immobilized ligand at 3 µM in experiment [7] was determined as 93%; in experiment [8], 98%; in [9] it was 100%; in [10], 81%; in [11], 75%; in experiment [12], 96%. Moreover, the percent of control kinase binding to immobilized ligand at 3 µM in experiment [13] amounted to 81%; in [14], 93%; in [15] it was 71%; in [16], 96%; in experiment [17], 100%; in experiment [18], 91%. Also, the percent of control kinase binding to immobilized ligand at 3 µM in experiment [19] turned out to be 100%; in experiment [20] it was 82%; in experiment [21], 100%.
